In brackets after ≈: the same amount, converted by molar mass.
test system: Mycobacterium tuberculosis; assay: not given; format: functional

Compared with Cc1c(NCc2nnc(-c3ccc(N)cc3)o2)c(=O)n(-c2ccccc2)n1C, Cc1c(NCc2nnc(-c3ccncc3)o2)c(=O)n(-c2ccccc2)n1C is higher in Ratio: 1.4 for the first, 7.6 for the second.

test system: Mycobacterium tuberculosis; assay: microbe, parasite or virus in culture

Cc1c(NCc2nnc(-c3ccccc3Cl)o2)c(=O)n(-c2ccccc2)n1C and Cc1c(NCc2nnc(-c3ccccc3)o2)c(=O)n(-c2ccccc2)n1C are within 1.5-fold of each other in MIC90: 12.7 µM (≈ 5.01 µg/mL) for the first, 13.8 µM (≈ 4.99 µg/mL) for the second.

Compared with Cc1c(NCc2nnc(-c3ccc(Cl)cc3)o2)c(=O)n(-c2ccccc2)n1C, Cc1c(NCc2nnc(-c3ccc(N)cc3)o2)c(=O)n(-c2ccccc2)n1C is 1.5-fold lower in MIC90: 12.7 µM (≈ 5.01 µg/mL) for the first, 8.29 µM (≈ 3.12 µg/mL) for the second.

First: Cc1c(NCc2nnc(-c3ccncc3)o2)c(=O)n(-c2ccccc2)n1C
Second: Cc1ccc(-c2nnc(CNc3c(C)n(C)n(-c4ccccc4)c3=O)o2)cc1
The MIC90 of the first is 8.8-fold lower: 1.52 µM (≈ 0.551 µg/mL) for the first, 13.3 µM (≈ 5 µg/mL) for the second.

Compared with Cc1c(NCc2nnc(Cc3ccccc3)o2)c(=O)n(-c2ccccc2)n1C, Cc1c(NCc2nnc(COc3ccccc3)o2)c(=O)n(-c2ccccc2)n1C is lower in MIC90: over 13.3 µM for the first, 12.8 µM (≈ 5 µg/mL) for the second.

Cc1c(NCc2nnc(-c3cccs3)o2)c(=O)n(-c2ccccc2)n1C and NNC(=O)c1ccncc1 [ISONIAZID] are within 1.5-fold of each other in MIC90: 13.6 µM (≈ 5 µg/mL) for the first, 11.6 µM (≈ 1.59 µg/mL) for the second.

Reference: ChEMBL document CHEMBL1921682, “Molecular properties prediction and synthesis of novel 1,3,4-oxadiazole analogues as potent antimicrobial and antitubercular agents” (Bioorg Med Chem Lett, 2011)
